Patent US20020051978A1, “Methods and compositions for the identification, assessment, prevention and therapy of human cancers” (priority 2000, published 2002)
Where two headings read alike, the source gives them in different places.

What was measured:
[1] = test system: 60 cancer cell lines (NCI 60 cancer cell line series); conditions: cited from earlier work
[2] = test system: 60 cancer cell lines (NCI 60 cancer cell line series); assay: NCI-DTP in vitro cancer screen, sulforhodamine B (SRB) growth inhibition, 48 hour exposure; format: cell-based, human
Method in brief: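 Values come from the NCI-DTP screen database: -log GI50, the concentration giving 50% growth inhibition, derived from SRB cell-mass dose-response curves. Each line seeded at its own density, treated day 1 at five ten-fold-spaced doses in duplicate wells, stained after 48 h.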

SMILES: N[C@@H](Cc1ccc(N(CCCl)CCCl)cc1)C(=O)O [Melphalan]
- -Log (GI50) ([1]; Breast BT-549 (CL5013)): 4.4
- -Log (GI50) ([1]; Breast HS-578T CL5006): 4.3
- -Log (GI50) ([1]; Breast MCF7(I) (CL5001)): 5.0
- -Log (GI50) ([1]; Breast MCF7/ADRr (CL5002)): 4.4
- -Log (GI50) ([1]; Breast MDA-MB-231 CL5005): 4.3
- -Log (GI50) ([1]; Breast MDA-MB-435 (CL5011)): 4.4
- -Log (GI50) ([1]; Breast MDA-N CL5012): 4.3
- -Log (GI50) ([1]; Breast T-47D (CL5014)): 4.9
- -Log (GI50) ([1]; CNS SF-268 CL12014): 4.7
- -Log (GI50) ([1]; CNS SF-295 CL12015): 4.7
- -Log (GI50) ([1]; CNS SF-539 CL12016): 4.8
- -Log (GI50) ([1]; CNS SNB-19 (CL12002)): 4.3
- -Log (GI50) ([1]; CNS SNB-75(I) CL12005): 4.5
- -Log (GI50) ([1]; CNS U251(I) CL12009): 4.6
- -Log (GI50) ([1]; Colon COLO-250 CL4010): 4.4
- -Log (GI50) ([1]; Colon HCC-2998 (CL4002)): 4.3
- -Log (GI50) ([1]; Colon HCT-15 CL4015): 4.4
- -Log (GI50) ([1]; Colon HCT-116 (CL4003)): 4.4
- -Log (GI50) ([1]; Colon HT29(I) CL4001): 4.1
- -Log (GI50) ([1]; Colon KM12 (CL4017)): 4.1
- -Log (GI50) ([1]; Colon SW-620 (CL4009)): 4.5
- -Log (GI50) ([1]; Leukemia CCRF-CEM(I) (CL7003)): 5.5
- -Log (GI50) ([1]; Leukemia HL-60(I) (CL7008)): 5.5
- -Log (GI50) ([1]; Leukemia K562(I) CL7005): 4.3
- -Log (GI50) ([1]; Leukemia MOLT-4 (CL7006)): 5.6
- -Log (GI50) ([1]; Leukemia RPMI-8226(I) (CL7010)): 4.4
- -Log (GI50) ([1]; Leukemia SR CL7019): 5.8
- -Log (GI50) ([1]; Melanoma LOX IMVI CL10001): 4.7
- -Log (GI50) ([1]; Melanoma M14 (CL10014)): 4.6
- -Log (GI50) ([1]; Melanoma MALME-3M CL10002): 4.6
- -Log (GI50) ([1]; Melanoma SK-MEL-2 (CL10005)): 4.2
- -Log (GI50) ([1]; Melanoma SK-MEL-5 (CL10007)): 4.4
- -Log (GI50) ([1]; Melanoma SK-MEL-28 (CL10008)): 4.3
- -Log (GI50) ([1]; Melanoma UACC-62 (CL10020)): 4.9
- -Log (GI50) ([1]; Melanoma UACC-257 (CL10021)): 4.4
- -Log (GI50) ([1]; NCSLC NCI-H522 CL1003): 4.6
- -Log (GI50) ([1]; NSCLC A549/ATCC (CL1004)): 4.5
- -Log (GI50) ([1]; NSCLC EKVX (CL1008)): 4.3
- -Log (GI50) ([1]; NSCLC HOP-62 (CL1026)): 4.8
- -Log (GI50) ([1]; NSCLC HOP-92 (CL1029)): 4.4
- -Log (GI50) ([1]; NSCLC NCI-H23(I) CL1001): 4.6
- -Log (GI50) ([1]; NSCLC NCI-H226 CL1013): 4.4
- -Log (GI50) ([1]; NSCLC NCI-H332M CL1017): 4.1
- -Log (GI50) ([1]; NSCLC NCI-H460 CL1021): 5.2
- -Log (GI50) ([1]; Ovarian IGROV1 CL6010): 4.3
- -Log (GI50) ([1]; Ovarian OVCAR-3 CL6001): 4.4
- -Log (GI50) ([1]; Ovarian OVCAR-4 CL6002): 4.4
- -Log (GI50) ([1]; Ovarian OVCAR-5 CL6003): 4.3
- -Log (GI50) ([1]; Ovarian OVCAR-8 CL6005): 4.4
- -Log (GI50) ([1]; Ovarian SK-OV-3 CL6011): 4.5
- -Log (GI50) ([1]; Prostate DU-145 CL11003): 4.3
- -Log (GI50) ([1]; Prostate PC-3(I) CL11001): 4.4
- -Log (GI50) ([1]; Renal 786-O CL9018): 4.8
- -Log (GI50) ([1]; Renal A498 CL9013): 4.0
- -Log (GI50) ([1]; Renal ACHN CL9023): 5.0
- -Log (GI50) ([1]; Renal CAKI-1 CL9015): 5.0
- -Log (GI50) ([1]; Renal RXF-393 CL9016): 4.7
- -Log (GI50) ([1]; Renal SN12C CL9008): 4.8
- -Log (GI50) ([1]; Renal TK10 CL9024): 4.2
- -Log (GI50) ([1]; Renal UO-31 CL9004): 4.3
- classification of cell line as Low(1), Medium(2) or High(3) sensitivity to compound [2]: 2
- classification of cell line as Low(1), Medium(2) or High(3) sensitivity to compound ([2]; Colon COLO-250 CL4010): 2
- classification of cell line as Low(1), Medium(2) or High(3) sensitivity to compound ([2]; Colon HCC-2998 (CL4002)): 2
- classification of cell line as Low(1), Medium(2) or High(3) sensitivity to compound ([2]; Colon HCT-15 CL4015): 2
- classification of cell line as Low(1), Medium(2) or High(3) sensitivity to compound ([2]; Colon HCT-116 (CL4003)): 2
- classification of cell line as Low(1), Medium(2) or High(3) sensitivity to compound ([2]; Colon HT29(I) CL4001): 1
- classification of cell line as Low(1), Medium(2) or High(3) sensitivity to compound ([2]; Colon KM12 (CL4017)): 1
- classification of cell line as Low(1), Medium(2) or High(3) sensitivity to compound ([2]; Colon SW-620 (CL4009)): 2
- classification of cell line as Low(1), Medium(2) or High(3) sensitivity to compound ([2]; Leukemia CCRF-CEM(I) (CL7003)): 3
- classification of cell line as Low(1), Medium(2) or High(3) sensitivity to compound ([2]; Leukemia HL-60(I) (CL7008)): 3
- classification of cell line as Low(1), Medium(2) or High(3) sensitivity to compound ([2]; Leukemia K562(I) CL7005): 2
- classification of cell line as Low(1), Medium(2) or High(3) sensitivity to compound ([2]; Leukemia MOLT-4 (CL7006)): 3
- classification of cell line as Low(1), Medium(2) or High(3) sensitivity to compound ([2]; Leukemia RPMI-8226(I) (CL7010)): 2
- classification of cell line as Low(1), Medium(2) or High(3) sensitivity to compound ([2]; Leukemia SR CL7019): 3
- classification of cell line as Low(1), Medium(2) or High(3) sensitivity to compound ([2]; Melanoma LOX IMVI CL10001): 2
- classification of cell line as Low(1), Medium(2) or High(3) sensitivity to compound ([2]; Melanoma M14 (CL10014)): 2
- classification of cell line as Low(1), Medium(2) or High(3) sensitivity to compound ([2]; Melanoma MALME-3M CL10002): 2
- classification of cell line as Low(1), Medium(2) or High(3) sensitivity to compound ([2]; Melanoma SK-MEL-2 (CL10005)): 2
- classification of cell line as Low(1), Medium(2) or High(3) sensitivity to compound ([2]; Melanoma SK-MEL-5 (CL10007)): 2
- classification of cell line as Low(1), Medium(2) or High(3) sensitivity to compound ([2]; Melanoma SK-MEL-28 (CL10008)): 2
- classification of cell line as Low(1), Medium(2) or High(3) sensitivity to compound ([2]; Melanoma UACC-62 (CL10020)): 3
- classification of cell line as Low(1), Medium(2) or High(3) sensitivity to compound ([2]; Melanoma UACC-257 (CL10021)): 2
- classification of cell line as Low(1), Medium(2) or High(3) sensitivity to compound ([2]; NSCLC A549/ATCC (CL1004)): 2
- classification of cell line as Low(1), Medium(2) or High(3) sensitivity to compound ([2]; NSCLC EKVX (CL1008)): 2
- classification of cell line as Low(1), Medium(2) or High(3) sensitivity to compound ([2]; NSCLC HOP-62 (CL1026)): 2
- classification of cell line as Low(1), Medium(2) or High(3) sensitivity to compound ([2]; NSCLC HOP-92 (CL1029)): 2
- classification of cell line as Low(1), Medium(2) or High(3) sensitivity to compound ([2]; NSCLC NCI-H226 CL1013): 2
- sensitivity class NSCLC NCI-H23(I) CL1001 ([2]; cell line NSCLC NCI-H23(I), CL1001): 2
- sensitivity class NSCLC NCI-H332M CL1017 ([2]; cell line NSCLC NCI-H332M, CL1017): 1
- sensitivity class NSCLC NCI-H460 CL1021 ([2]; cell line NSCLC NCI-H460, CL1021): 3
- sensitivity class NSCLC NCI-H522 CL1003 ([2]; cell line NSCLC NCI-H522, CL1003): 2
- sensitivity class Ovarian IGROV1 CL6010 ([2]; cell line Ovarian IGROV1, CL6010): 2
- sensitivity class Ovarian OVCAR-3 CL6001 ([2]; cell line Ovarian OVCAR-3, CL6001): 2
- sensitivity class Ovarian OVCAR-4 CL6002 ([2]; cell line Ovarian OVCAR-4, CL6002): 2
- sensitivity class Ovarian OVCAR-5 CL6003 ([2]; cell line Ovarian OVCAR-5, CL6003): 2
- sensitivity class Ovarian OVCAR-8 CL6005 ([2]; cell line Ovarian OVCAR-8, CL6005): 2
- sensitivity class Ovarian SK-OV-3 CL6011 ([2]; cell line Ovarian SK-OV-3, CL6011): 2
- sensitivity class Prostate DU-145 CL11003 ([2]; cell line Prostate DU-145, CL11003): 2
- sensitivity class Prostate PC-3(I) CL11001 ([2]; cell line Prostate PC-3(I), CL11001): 2
- sensitivity class Renal 786-O CL9018 ([2]; cell line Renal 786-O, CL9018): 2
- sensitivity class Renal A498 CL9013 ([2]; cell line Renal A498, CL9013): 1
- sensitivity class Renal ACHN CL9023 ([2]; cell line Renal ACHN, CL9023): 3
- sensitivity class Renal CAKI-1 CL9015 ([2]; cell line Renal CAKI-1, CL9015): 3
- sensitivity class Renal RXF-393 CL9016 ([2]; cell line Renal RXF-393, CL9016): 2
- sensitivity class Renal SN12C CL9008 ([2]; cell line Renal SN12C, CL9008): 2
- sensitivity class Renal TK10 CL9024 ([2]; cell line Renal TK10, CL9024): 1
- sensitivity class Renal UO-31 CL9004 ([2]; cell line Renal UO-31, CL9004): 2
